These results are taken from patent publication US20250288590A1, “DRUG SUSTAINED-RELEASE TABLET FOR TREATING LIVER DISEASE, PREPARATION METHOD THEREFOR AND USE THEREOF” (CHANGCHUN INTELLICROWN PHARMACEUTICAL CO., LTD., priority 2022, published 2025).

The nature of data set [1]: pharmacokinetics in Beagle dogs, oral administration of the compound. Type of data set: in vivo.
Data set [2] can be described thus: solubility, pH dependence. The conditions noted are these: mesylate; increasing pH. Type of data set: physicochemical.
Data set [3] can be described thus: rat pharmacokinetic studies, oral administration. Type of data set: in vivo. The conditions noted are these: rats.

For the molecule `COC(=O)c1cc(OC)c2c(c1-c1c(CN3CCOCC3)cc(OC)c3c1OCO3)OCO2` [IMM-H014, methyl 7,7′-dimethoxy-5′-(morpholinomethyl)-[4,4′-bibenzo[d][1,3]dioxole]-5-carboxylate], the half-life in data set [1] (dog, blood, Beagle dogs, read-out: elimination half-life (converted)) is ~3.5 h; in data set [3] (rat, blood, oral administration, read-out: elimination half-life (converted)), ~1.8 h. In data set [1] (dogs), the “time to peak blood concentration (Tmax)” value is 0.5 h. In addition, the “solubility (pH-dependent)” value in data set [2] is “as the pH increases, the solubility gradually decreases”. The molecule also returned a bioavailability in data set [3] (rat, blood, oral) of 96.3%. The “peak blood concentration (time)” value in data set [3] (oral administration) is listed as 0.5 h.
